Among the test systems are OVCAR-3 ovarian; BT-549 breast; CAKI-1 renal; SNB-75 CNS; KM12 colon; T-47D breast; DU-145 prostate; U251 CNS; SK-OV-3 ovarian; MDA-MB-231 breast.
Common to all, as to assay: NCI tumour cell line growth inhibition, 48 h

For seven compounds, GI50 and TGI results are on record in PubChem BioAssay (NCI).

Values joined by “and” are separate entries in the source; they are usually repeats but may differ in a detail not shown here. Identical values can stand only once.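 Briefly, cells in 96-well plates were exposed to five compound concentrations for 48 h, and endpoints were estimated by linear interpolation. GI50 is the concentration that inhibits growth by half. TGI is the concentration that stops growth completely.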

On to `CSc1ccc(C2=NN(C(C)=O)C(c3ccc(-c4ccc(Cl)cc4)o3)C2)cc1` (stereo not drawn), for which the GI50 in the experiment with OVCAR-3 ovarian is 21 µM; in the experiment with BT-549 breast it was 76.4 µM; in the experiment with CAKI-1 renal it was 31.1 µM; in the experiment on SNB-75 CNS it was 25.4 µM; in the experiment on KM12 colon, 24 µM; with T-47D breast, 17.9 µM. The GI50 in the experiment with DU-145 prostate is 81 µM; in the experiment with U251 CNS, 31.3 µM; in the experiment with SK-OV-3 ovarian, 28.9 µM; in the experiment with MDA-MB-231 breast, 19.3 µM. The TGI in the experiment on OVCAR-3 ovarian is 80.9 µM; in the experiment on BT-549 breast, greater than 100 µM; in the experiment on CAKI-1 renal, greater than 100 µM; in the experiment on SNB-75 CNS, greater than 100 µM; in the experiment with KM12 colon, greater than 100 µM; with T-47D breast, 79.6 µM. The TGI in the experiment with DU-145 prostate, in the experiment with U251 CNS, with SK-OV-3 ovarian and in the experiment on MDA-MB-231 breast was greater than 100 µM throughout.
Consider `COc1ccc(/C=C(/C)[N+](=O)[O-])cc1OC`, for which the GI50 was 1.89 µM and 1.79 µM in the experiment with OVCAR-3 ovarian; 3.74 µM and 2.07 µM with BT-549 breast; 1.88 µM and 0.338 µM in the experiment with CAKI-1 renal; 4.71 µM and 3.76 µM in the experiment with SNB-75 CNS; 3.66 µM and 2.1 µM with KM12 colon; 1.54 µM and 1.37 µM with T-47D breast. The GI50 in the experiment on DU-145 prostate was 2.42 µM and 2.45 µM; with U251 CNS it was 2.3 µM and 1.67 µM; with SK-OV-3 ovarian, 14.3 µM and 16.7 µM; with MDA-MB-231 breast, 1.97 µM and 2.38 µM. Also, the TGI in the experiment on OVCAR-3 ovarian was 3.35 µM and 3.44 µM; in the experiment on BT-549 breast it was 8.87 µM and 3.92 µM; in the experiment on CAKI-1 renal, 4.04 µM and 1.46 µM; with SNB-75 CNS, 18 µM and 13.9 µM; in the experiment with KM12 colon, 9.69 µM and 5.79 µM; in the experiment on T-47D breast, 3.29 µM and 3.23 µM. The TGI is 5.72 µM and 5.67 µM with DU-145 prostate; 6.14 µM and 3.14 µM with U251 CNS; 27.4 µM and 30.4 µM with SK-OV-3 ovarian; 4.26 µM and 5.02 µM in the experiment with MDA-MB-231 breast.
On to `O=C1C(OCCOc2ccccc2)=C(OCCOc2ccccc2)C(=O)c2ccccc21`, for which the GI50 in the experiment with OVCAR-3 ovarian was 6.5 µM; in the experiment with BT-549 breast, greater than 100 µM; with CAKI-1 renal it was 12.5 µM; with SNB-75 CNS, 20.1 µM; in the experiment with KM12 colon, 4.71 µM; in the experiment on T-47D breast, greater than 100 µM. Also, the GI50 in the experiment with DU-145 prostate was 7.12 µM; with U251 CNS, 5 µM; with SK-OV-3 ovarian, 23.1 µM; in the experiment on MDA-MB-231 breast, greater than 100 µM. Further, the TGI in the experiment with OVCAR-3 ovarian, with BT-549 breast, in the experiment on CAKI-1 renal, with SNB-75 CNS, in the experiment with KM12 colon and with T-47D breast was greater than 100 µM in each case. The TGI in the experiment with DU-145 prostate, with U251 CNS, in the experiment with SK-OV-3 ovarian and with MDA-MB-231 breast was greater than 100 µM each time.
Consider `Oc1c(-c2cc(C(F)(F)F)[nH]n2)cc(Cl)c(OCc2ccc(Cl)cc2)c1-c1ccc(Cl)c(C(F)(F)F)c1`, for which the GI50 was 0.315 µM in the experiment with OVCAR-3 ovarian; 0.624 µM in the experiment on BT-549 breast; 0.514 µM in the experiment on CAKI-1 renal; 0.496 µM in the experiment with SNB-75 CNS; 0.862 µM in the experiment on KM12 colon; 0.147 µM in the experiment with T-47D breast. Moreover, the GI50 in the experiment on DU-145 prostate is 1.15 µM; in the experiment with U251 CNS it was 0.5 µM; in the experiment on SK-OV-3 ovarian it was 1.54 µM; with MDA-MB-231 breast, 0.46 µM. The TGI turned out to be 5.5 µM in the experiment with OVCAR-3 ovarian; 2.16 µM with BT-549 breast; 2.92 µM in the experiment on CAKI-1 renal; 1.74 µM in the experiment with SNB-75 CNS; 2.66 µM in the experiment on KM12 colon; 1.53 µM in the experiment on T-47D breast. Also, the TGI in the experiment with DU-145 prostate worked out at 6.39 µM; with U251 CNS, 5.76 µM; in the experiment on SK-OV-3 ovarian, 4.66 µM; with MDA-MB-231 breast, 3.07 µM.
For `Nc1n[nH]c2ccc([C@@H]3Nc4cc5c(cc4[C@H]4C6CCC(C6)[C@@H]34)C(=O)NC5)cc12` (stereo partly drawn), the GI50 in the experiment on OVCAR-3 ovarian was 0.305 µM; in the experiment with BT-549 breast it was 0.32 µM; in the experiment with CAKI-1 renal, 0.498 µM; in the experiment with SNB-75 CNS, 0.718 µM; in the experiment with KM12 colon it was 0.472 µM; with DU-145 prostate, 0.416 µM. Further, the GI50 is 0.418 µM in the experiment with U251 CNS, 0.844 µM in the experiment with SK-OV-3 ovarian and 0.436 µM in the experiment on MDA-MB-231 breast. For the same compound, the TGI was 1.19 µM with OVCAR-3 ovarian; 1.71 µM with BT-549 breast; greater than 100 µM with CAKI-1 renal; greater than 100 µM with SNB-75 CNS; greater than 100 µM in the experiment on KM12 colon; greater than 100 µM in the experiment with T-47D breast. Besides, the results for the TGI in the experiment with DU-145 prostate, with U251 CNS and with SK-OV-3 ovarian were greater than 40.7 µM, greater than 100 µM and greater than 100 µM, respectively.
For the compound `C/C(=N\O)c1cccc(Nc2cc(-n3ccnc3)c3ccccc3n2)c1`, the GI50 in the experiment on OVCAR-3 ovarian was 14.7 µM; in the experiment with BT-549 breast it was 17 µM; with CAKI-1 renal, 11.2 µM; with SNB-75 CNS, 11.4 µM; in the experiment on KM12 colon, 10.5 µM; in the experiment on T-47D breast, 9.32 µM. Moreover, the GI50 is 18.9 µM in the experiment on DU-145 prostate, 12.4 µM in the experiment with U251 CNS, 20.9 µM with SK-OV-3 ovarian and 6.26 µM in the experiment on MDA-MB-231 breast. Also, the TGI in the experiment on OVCAR-3 ovarian was 39.6 µM; with BT-549 breast, 35.1 µM; with CAKI-1 renal, 32.9 µM; with SNB-75 CNS, 26.8 µM; in the experiment on KM12 colon it was 31.8 µM; in the experiment on T-47D breast, 35.8 µM. The TGI in the experiment with DU-145 prostate was determined as 35.8 µM; in the experiment with U251 CNS it was 28.7 µM; in the experiment on SK-OV-3 ovarian, 60.5 µM; with MDA-MB-231 breast it was 24 µM.
Regarding `Oc1cccc2c1NCCC2`, the GI50 is 0.0425 µM in the experiment on OVCAR-3 ovarian; 0.541 µM with BT-549 breast; 2.24 µM in the experiment on CAKI-1 renal; 0.159 µM in the experiment on SNB-75 CNS; 0.903 µM in the experiment with KM12 colon; 0.581 µM with T-47D breast. Also, the GI50 was 0.229 µM in the experiment with DU-145 prostate, 0.102 µM with U251 CNS, 0.891 µM with SK-OV-3 ovarian and 0.183 µM in the experiment with MDA-MB-231 breast. Also, the TGI is 2.59 µM in the experiment with OVCAR-3 ovarian; greater than 100 µM in the experiment on BT-549 breast; 16.6 µM with CAKI-1 renal; greater than 100 µM with SNB-75 CNS; greater than 100 µM in the experiment with KM12 colon; 96.2 µM in the experiment with T-47D breast. Moreover, the TGI was 54.8 µM in the experiment with DU-145 prostate, greater than 100 µM in the experiment on U251 CNS, greater than 100 µM in the experiment with SK-OV-3 ovarian and greater than 100 µM in the experiment on MDA-MB-231 breast.
